Source: patent US20130337564A1, “Treatment of Pluripotent Cells” (Janssen Biotech, Inc., priority 2012, published 2013)

What was measured:
Format in all cases: cell-based
[1] = tested on: Sox17 expression in human embryonic stem cells (H9 line); assay: High content screening assay: Sox17 protein expression (differentiation)
In short: (§1)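 H9 hESCs on MATRIGEL treated days 1-2 with 10 μM compound in DMEM:F12, 0.5% FCS, 100 ng/ml activin A; days 3-4 with 2% FCS plus activin A without compound. Fixed cells immunostained for Sox17 or HNF-3beta with Draq5 nuclear counterstain. Cell number and staining intensity quantified by high-content imaging, 12 fields/well.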

[2] = tested on: human embryonic stem cells (H9 line); assay: High content screening assay: cell number (proliferative response); settings: for Proliferative Response Fold over Wnt 3a/AA control: normalised to Wnt 3a/AA control
In short: as §1

[3] = tested on: HNF-3beta expression in human embryonic stem cells (H9 line); assay: High content screening assay: HNF-3beta protein expression (differentiation)
In short: as §1

[4] = tested on: cells expressing pluripotency markers derived from human embryonic stem cells; assay: MTS viability (toxicity) assay of cells expressing pluripotency markers; set-up: Raw data (duplicate), first replicate / Average: unit not given here
In short: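 Cells expressing pluripotency markers, derived from human embryonic stem cells, were plated at 20,000 cells per well in 96-well clear-bottom plates and cultured overnight. Test compounds were applied in assay medium on days 1 and 2, and compound-free medium on days 3 and 4. On day 4, MTS was added and optical density at 490 nm was read in duplicate.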

[5] = total intensity normalised to Wnt 3a/AA control
[6] = cell number in the wells analysed for HNF-3b expression
[7] = cell number in the wells analysed for SOX-17 expression

Q: Which “SOX-17 Expression Total Intensity” value ([1]; total intensity) does the source give for `O=C1NC(=O)C2=C1c1cn(c3ncccc13)CCOCCOCCOCCOCCOCCn1cc2c2cccnc21` [Compound 168, 10,11,13,14,16,17,19,20,22,23,25,26-Dodecahydro-1H-9,4:27,32-di(metheno)dipyrido[2,3-q:3′,2′-w]pyrrolo[3,4-t][1,4,7,10,13,16,25]pentaoxadiazacycloheptacosine-1,3(2H)-dione] here?
A: 2574279

Q: What about the “SOX-17 Expression Fold over Wnt 3a/AA control” value [1, 5] of the same compound?
A: 0.0837 fold

Q: What about the “Proliferative Response Total cells” value [2, 6] of the same compound?
A: 57

Q: And the “Proliferative Response Fold over Wnt 3a/AA control” value [2, 6]?
A: 0.04523 fold

Q: And the “Proliferative Response Total cells” value [2, 7]?
A: 118

Q: And the “Proliferative Response Fold over Wnt 3a/AA control” value [2, 7]?
A: 0.07046 fold

Q: What about the “HNF-3b Expression Total Intensity” value ([3]; total intensity) of the same compound?
A: 2584708

Q: What about the “HNF-3b Expression Fold over Wnt 3a/AA control” value [3, 5] of the same compound?
A: 0.0943 fold

Q: And the “Raw data (duplicate), first replicate” value ([4]; MTS viability assay raw reading, replicate 1)?
A: 0.610

Q: What about the “Raw data (duplicate), second replicate” value ([4]; MTS viability assay raw reading, replicate 2) of the same compound?
A: 0.628

Q: What about the Average ([4]; average of duplicate MTS raw readings) of the same compound?
A: 0.619

Q: What about the “% Control” value ([4]; viability of cells expressing pluripotency markers, relative to control) of the same compound?
A: 73.9%
